This is an account of results in US9023821B2, “Use of MicroRNA for treating diseases associated with a dysfunction of the cilia in multiciliated epithelial cells” (Centre National de la Recherche Scientifique, priority 2009, dated 2015).

The subject of series [1] is human airway epithelial cells (HAECs). As to the kind of experiment: High-throughput sequencing (HTS) of miRNAs at four stages of differentiation of HAECs. Particulars: for Modulation (ratio of the level of intensity of expression in log2 in two stages of differentiation) measured by high-throughput sequencing, D7 − D0 / Modulation (ratio of the level of intensity of expression in log2 in two stages of differentiation) measured by high-throughput sequencing, FC − D7 / Modulation (ratio of the level of intensity of expression in log2 in two stages of differentiation) measured by high-throughput sequencing, WD − D0 / Modulation (ratio of the level of intensity of expression in log2 in two stages of differentiation) measured by high-throughput sequencing, WD − FC / Level of intensity of expression in log2 measured by high-throughput sequencing, D0 / Level of intensity of expression in log2 measured by high-throughput sequencing, D7 / Level of intensity of expression in log2 measured by high-throughput sequencing, FC / Level of intensity of expression in log2 measured by high-throughput sequencing, WD: Table VI; for Level of intensity of expression in log2 At the differentiated stage (WD) measured in HTS: healthy human airway epithelial tissue; for Level of intensity of expression in log2 measured by high-throughput sequencing, D0: stage D0; for Level of intensity of expression in log2 measured by high-throughput sequencing, D7: stage D7; for Level of intensity of expression in log2 measured by high-throughput sequencing, FC: stage FC; for Level of intensity of expression in log2 At the differentiated stage (WD) measured in HTS / Level of intensity of expression in log2 measured by high-throughput sequencing, WD: stage WD. Summed up:
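Reads per 5p and 3p strand scaled to 10^6 sequences, then to percentage abundance; linear model plus empirical Bayes normalization. Retained miRNAs exceeded 1% of total in at least one condition, with |Log2 Ratio| below 0.5 and adjusted P-value below 0.05.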

For series [2] the test system is unchanged. As to the kind of experiment: Agilent miRNA chips, miRNA expression at four stages of differentiation of HAECs. Particulars: for Modulation (ratio of the level of intensity of expression in log2 in two stages of differentiation) measured with the Agilent chips, D7 − D0 / Modulation (ratio of the level of intensity of expression in log2 in two stages of differentiation) measured with the Agilent chips, FC − D7 / Modulation (ratio of the level of intensity of expression in log2 in two stages of differentiation) measured with the Agilent chips, WD − D0 / Modulation (ratio of the level of intensity of expression in log2 in two stages of differentiation) measured with the Agilent chips, WD − FC / Level of intensity of expression in log2 measured with the Agilent chips, D0 / Level of intensity of expression in log2 measured with the Agilent chips, D7 / Level of intensity of expression in log2 measured with the Agilent chips, FC / Level of intensity of expression in log2 measured with the Agilent chips, WD: Table VI; for Modulation (ratio of the level of intensity of expression in log2 at two stages of differentiation), FC − D7 / Modulation (ratio of the level of intensity of expression in log2 at two stages of differentiation), WD − FC: Agilent miRNA chips, Table V; for Level of intensity of expression in log2 measured with the Agilent chips, D0: stage D0; for Level of intensity of expression in log2 measured with the Agilent chips, D7: stage D7; for Level of intensity of expression in log2 measured with the Agilent chips, FC: stage FC; for Level of intensity of expression in log2 measured with the Agilent chips, WD: stage WD. Summed up: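 Arrays probing 866 human and 89 human viral miRNAs were used in parallel with sequencing. The same patients' RNA was labelled and hybridized following the manufacturer's protocol.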

Series [3] concerns basal cells and pyramidal cells of the airway epithelium. As to the kind of experiment: miRNA expression in sorted basal cells versus pyramidal cells (ciliated + secretory), HTS and Agilent chips. Details: species or system human. Particulars: for Modulation of expression of the miRNAs in pyramidal cells (323(−)) relative to basal cells 323(+): HTS and Agilent chips; for Intensity of the level of expression in log2 in pyramidal cells (323(−)): pyramidal cells (ciliated + secretory). A digest of the protocol: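 Nasal polyp or concha epithelial cells from 3 donors were stained with CD151-PE and anti-tissue factor-FITC for 20 min at 4° C, with DAPI excluding damaged cells. CD151+/TF+ basal and CD151−/TF− ciliated/secretory cells were FACS-sorted; total RNA miRNA profiles came from Agilent chips or high-throughput sequencing.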

Regarding “hsa-miR-26b: human miRNA, SEQ ID No. 29 (UUCAAGUAAUUCAGGAUAGGU; expressed or natural sequence; listed as Homo sapiens)”, in series [1], the “Modulation (ratio of the level of intensity of expression in log2 in two stages of differentiation) measured by high-throughput sequencing, D7 − D0” value is 0.09 log2; the “Modulation (ratio of the level of intensity of expression in log2 in two stages of differentiation) measured by high-throughput sequencing, FC − D7” value is 0.05 log2; the “Modulation (ratio of the level of intensity of expression in log2 in two stages of differentiation) measured by high-throughput sequencing, WD − D0” value was 0.92 log2; the “Modulation (ratio of the level of intensity of expression in log2 in two stages of differentiation) measured by high-throughput sequencing, WD − FC” value came out at 0.78 log2. In addition, in series [1], the “Level of intensity of expression in log2 At the differentiated stage (WD) measured in HTS” value worked out at 6.81 log2; the “Level of intensity of expression in log2 measured by high-throughput sequencing, D0” value was 6.84 log2; the “Level of intensity of expression in log2 measured by high-throughput sequencing, D7” value is given as 6.93 log2; the “Level of intensity of expression in log2 measured by high-throughput sequencing, FC” value came out at 6.97 log2. Further, the “Level of intensity of expression in log2 measured by high-throughput sequencing, WD” value in series [1] was 7.75 log2. Moreover, in series [2], the “Modulation (ratio of the level of intensity of expression in log2 in two stages of differentiation) measured with the Agilent chips, D7 − D0” value came out at 1.94 log2; the “Modulation (ratio of the level of intensity of expression in log2 at two stages of differentiation), FC − D7” value is on record as −0.37 log2; the “Modulation (ratio of the level of intensity of expression in log2 in two stages of differentiation) measured with the Agilent chips, FC − D7” value is reported as −0.37 log2; the “Modulation (ratio of the level of intensity of expression in log2 in two stages of differentiation) measured with the Agilent chips, WD − D0” value stood at 1.65 log2. Moreover, in series [2], the “Modulation (ratio of the level of intensity of expression in log2 at two stages of differentiation), WD − FC” value is 0.08 log2; the “Modulation (ratio of the level of intensity of expression in log2 in two stages of differentiation) measured with the Agilent chips, WD − FC” value was 0.08 log2; the “Level of intensity of expression in log2 measured with the Agilent chips, D0” value is recorded as 7.97 log2; the “Level of intensity of expression in log2 measured with the Agilent chips, D7” value is given as 9.91 log2. In addition, in series [2], the “Level of intensity of expression in log2 measured with the Agilent chips, FC” value is given as 9.54 log2 and the “Level of intensity of expression in log2 measured with the Agilent chips, WD” value turned out to be 9.62 log2. Besides, in series [3], the “Modulation of expression of the miRNAs in pyramidal cells (323(−)) relative to basal cells 323(+)” value was −1.47, the “Intensity of the level of expression in log2 in basal cells (323(+))” value was determined as 8.75 log2 and the “Intensity of the level of expression in log2 in pyramidal cells (323(−))” value is 7.28 log2.

Consider “hsa-miR-425: human miRNA, SEQ ID No. 44 (AAUGACACGAUCACUCCCGUUGA; expressed or natural sequence; listed as Homo sapiens)”, for which, in series [1], the “Modulation (ratio of the level of intensity of expression in log2 in two stages of differentiation) measured by high-throughput sequencing, D7 − D0” value was 0.42 log2; the “Modulation (ratio of the level of intensity of expression in log2 in two stages of differentiation) measured by high-throughput sequencing, FC − D7” value was 0.74 log2; the “Modulation (ratio of the level of intensity of expression in log2 in two stages of differentiation) measured by high-throughput sequencing, WD − D0” value came to 1.12 log2; the “Modulation (ratio of the level of intensity of expression in log2 in two stages of differentiation) measured by high-throughput sequencing, WD − FC” value was −0.04 log2. Besides, in series [1], the “Level of intensity of expression in log2 At the differentiated stage (WD) measured in HTS” value was 9.53 log2; the “Level of intensity of expression in log2 measured by high-throughput sequencing, D0” value stood at 10.58 log2; the “Level of intensity of expression in log2 measured by high-throughput sequencing, D7” value is given as 11.01 log2; the “Level of intensity of expression in log2 measured by high-throughput sequencing, FC” value worked out at 11.75 log2. The “Level of intensity of expression in log2 measured by high-throughput sequencing, WD” value in series [1] came to 11.70 log2. In addition, in series [2], the “Modulation (ratio of the level of intensity of expression in log2 in two stages of differentiation) measured with the Agilent chips, D7 − D0” value was found to be 1.59 log2; the “Modulation (ratio of the level of intensity of expression in log2 at two stages of differentiation), FC − D7” value stood at 0.19 log2; the “Modulation (ratio of the level of intensity of expression in log2 in two stages of differentiation) measured with the Agilent chips, FC − D7” value worked out at 0.19 log2; the “Modulation (ratio of the level of intensity of expression in log2 in two stages of differentiation) measured with the Agilent chips, WD − D0” value was determined as 1.57 log2. Further, in series [2], the “Modulation (ratio of the level of intensity of expression in log2 at two stages of differentiation), WD − FC” value is listed as −0.21 log2; the “Modulation (ratio of the level of intensity of expression in log2 in two stages of differentiation) measured with the Agilent chips, WD − FC” value was −0.21 log2; the “Level of intensity of expression in log2 measured with the Agilent chips, D0” value is listed as 6.61 log2; the “Level of intensity of expression in log2 measured with the Agilent chips, D7” value was found to be 8.21 log2. In series [2], the “Level of intensity of expression in log2 measured with the Agilent chips, FC” value is 8.39 log2 and the “Level of intensity of expression in log2 measured with the Agilent chips, WD” value is 8.18 log2. In addition, in series [3], the “Modulation of expression of the miRNAs in pyramidal cells (323(−)) relative to basal cells 323(+)” value is reported as 0.70, the “Intensity of the level of expression in log2 in basal cells (323(+))” value is given as 4.52 log2 and the “Intensity of the level of expression in log2 in pyramidal cells (323(−))” value turned out to be 5.22 log2.
